The pIC50 is −log10 of the IC50, conventionally taken in molar units.

Consider 30 molecules from patent US9056874B2, “Complement pathway modulators and uses thereof” (NOVARTIS AG, priority 2012, dated 2015).

pIC50: −log10 of the molar value.

Experiment [1] addresses T1, factor B (Homo sapiens, UniProt P00751). Put plainly: assay of Biological Example 2.7. More on the design: made in house; host or cells: drosophila cells. The class given is binding. The settings on record: assay of Biological Example 2.7 (Table 2).
Target sequence in this assay (P00751 26-764): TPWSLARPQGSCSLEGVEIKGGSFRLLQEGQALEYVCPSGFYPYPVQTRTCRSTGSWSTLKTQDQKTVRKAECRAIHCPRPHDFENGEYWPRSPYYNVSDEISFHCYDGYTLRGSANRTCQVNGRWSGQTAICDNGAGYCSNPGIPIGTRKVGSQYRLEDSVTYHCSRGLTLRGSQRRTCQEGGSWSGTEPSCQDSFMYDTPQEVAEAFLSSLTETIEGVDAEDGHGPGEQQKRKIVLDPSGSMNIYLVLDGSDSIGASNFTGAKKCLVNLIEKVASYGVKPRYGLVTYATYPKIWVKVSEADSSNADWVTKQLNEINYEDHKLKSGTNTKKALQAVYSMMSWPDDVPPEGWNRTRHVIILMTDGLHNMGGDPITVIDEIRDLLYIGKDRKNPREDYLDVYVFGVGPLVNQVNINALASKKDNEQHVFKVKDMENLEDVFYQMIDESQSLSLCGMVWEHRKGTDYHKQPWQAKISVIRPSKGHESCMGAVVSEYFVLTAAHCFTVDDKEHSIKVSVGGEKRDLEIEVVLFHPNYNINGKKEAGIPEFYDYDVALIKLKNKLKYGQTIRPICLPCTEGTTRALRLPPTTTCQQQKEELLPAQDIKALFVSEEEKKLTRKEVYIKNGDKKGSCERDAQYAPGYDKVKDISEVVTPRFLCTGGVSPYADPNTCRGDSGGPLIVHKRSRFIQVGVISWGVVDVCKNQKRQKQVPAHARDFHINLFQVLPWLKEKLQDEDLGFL
For experiment [2], the target named is T1, factor B. Put plainly: factor B inhibition assay of Biological Example 1. The class given is biochemical. More on the design: CVF-Bb complex prepared from purified cobra venom factor (1 μM), recombinant human complement factor B; made in house; host or cells: drosophila cells (factor B); E. coli (factor D used to form the complex). The settings on record: assay of Biological Example 1 (Table 1), read-out: IC50.
Target sequence in this assay (P00751 260-764 limits assumed): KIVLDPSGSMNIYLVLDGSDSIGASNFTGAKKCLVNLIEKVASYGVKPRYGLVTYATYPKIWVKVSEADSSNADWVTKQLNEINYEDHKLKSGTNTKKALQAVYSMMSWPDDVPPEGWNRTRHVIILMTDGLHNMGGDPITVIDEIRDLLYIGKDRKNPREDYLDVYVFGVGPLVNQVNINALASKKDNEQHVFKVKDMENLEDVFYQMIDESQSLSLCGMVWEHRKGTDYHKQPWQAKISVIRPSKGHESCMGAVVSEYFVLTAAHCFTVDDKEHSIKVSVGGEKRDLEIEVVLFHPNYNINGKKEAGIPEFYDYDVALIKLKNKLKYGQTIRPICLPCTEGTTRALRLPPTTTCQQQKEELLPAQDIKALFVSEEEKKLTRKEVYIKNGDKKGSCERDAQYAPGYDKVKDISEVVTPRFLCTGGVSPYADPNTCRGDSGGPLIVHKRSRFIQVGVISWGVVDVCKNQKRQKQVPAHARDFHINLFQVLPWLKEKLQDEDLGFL
Target sequence in this assay (Q91132 23-649 partner limits assumed): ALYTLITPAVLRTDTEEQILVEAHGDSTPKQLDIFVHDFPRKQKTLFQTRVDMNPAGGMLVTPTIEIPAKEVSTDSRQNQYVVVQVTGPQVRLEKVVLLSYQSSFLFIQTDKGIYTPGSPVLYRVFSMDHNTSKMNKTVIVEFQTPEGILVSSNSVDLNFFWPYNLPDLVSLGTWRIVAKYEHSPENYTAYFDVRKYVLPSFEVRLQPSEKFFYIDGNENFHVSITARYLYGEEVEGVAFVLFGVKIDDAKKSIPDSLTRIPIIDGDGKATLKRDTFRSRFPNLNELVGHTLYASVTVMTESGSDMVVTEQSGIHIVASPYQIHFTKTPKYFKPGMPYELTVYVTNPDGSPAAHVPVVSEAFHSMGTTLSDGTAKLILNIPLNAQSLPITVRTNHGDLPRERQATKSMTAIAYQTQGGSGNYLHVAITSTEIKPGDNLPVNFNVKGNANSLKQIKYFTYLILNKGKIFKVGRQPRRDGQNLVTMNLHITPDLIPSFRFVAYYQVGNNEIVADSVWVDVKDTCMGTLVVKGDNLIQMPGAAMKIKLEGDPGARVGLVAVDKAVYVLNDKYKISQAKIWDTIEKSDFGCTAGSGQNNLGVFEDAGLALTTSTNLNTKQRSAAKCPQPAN
Target sequence in this assay (Q91132 733-984 partner limits assumed): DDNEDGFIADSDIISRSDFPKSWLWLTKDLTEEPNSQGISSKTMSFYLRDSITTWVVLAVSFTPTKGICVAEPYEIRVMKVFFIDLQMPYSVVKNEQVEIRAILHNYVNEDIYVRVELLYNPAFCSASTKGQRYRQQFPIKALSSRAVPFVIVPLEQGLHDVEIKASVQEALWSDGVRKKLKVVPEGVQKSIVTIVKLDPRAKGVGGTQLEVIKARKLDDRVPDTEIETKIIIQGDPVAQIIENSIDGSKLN
Target sequence in this assay (Q91132 1264-1642 partner limits assumed): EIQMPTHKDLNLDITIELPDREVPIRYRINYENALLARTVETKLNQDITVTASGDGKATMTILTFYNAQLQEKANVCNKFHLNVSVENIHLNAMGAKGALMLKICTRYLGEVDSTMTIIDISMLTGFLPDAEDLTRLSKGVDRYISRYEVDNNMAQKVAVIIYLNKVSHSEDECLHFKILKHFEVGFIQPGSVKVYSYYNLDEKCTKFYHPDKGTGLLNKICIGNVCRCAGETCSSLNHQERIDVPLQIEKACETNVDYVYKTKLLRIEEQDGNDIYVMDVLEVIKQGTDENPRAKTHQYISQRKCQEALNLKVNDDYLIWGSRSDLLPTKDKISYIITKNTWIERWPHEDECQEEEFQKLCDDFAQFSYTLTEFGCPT

`COc1cc(C)c2[nH]ccc2c1C(NCCN)(c1nc2cc(C#N)ccc2[nH]1)C(F)(F)F` (racemic) [38-D b) (+), (+)-2-(1-((2-aminoethyl)amino)-2,2,2-trifluoro-1-(5-methoxy-7-methyl-1H-indol-4-yl)ethyl)-1H-benzo[d]imidazole-5-carbonitrile] gave a pIC50 against factor B [1] of 5.69.

Turning to `COc1cc(C)c2[nH]ccc2c1C(NCCN)(c1nc2cc(C#N)ccc2[nH]1)C(F)(F)F` (racemic) [38-D b) (−), (−)-2-(1-((2-aminoethyl)amino)-2,2,2-trifluoro-1-(5-methoxy-7-methyl-1H-indol-4-yl)ethyl)-1H-benzo[d]imidazole-5-carbonitrile], the pIC50 at factor B [1] is 6.11.

In turn, `COc1cc(C)c2[nH]ccc2c1C(OC(F)C(=O)O)(c1nc2cc(C#N)ccc2[nH]1)C(F)(F)F` (racemic) [Example 35-G, (±)-2-(1-(5-Cyano-1H-benzo[d]imidazol-2-yl)-2,2,2-trifluoro-1-(5-methoxy-7-methyl-1H-indol-4-yl)ethoxy)-2-fluoroacetic acid] had a negative logarithm of the IC50 (pIC50) at factor B [1] of 6.11.

`COc1cc(C)c2[nH]ccc2c1C(OCc1nnc(C)o1)(c1nc2cc(C#N)ccc2[nH]1)C(F)(F)F` (racemic) [Example 35-L, (±)-2-(2,2,2-Trifluoro-1-(5-methoxy-7-methyl-1H-indol-4-yl)-1-((5-methyl-1,3,4-oxadiazol-2-yl)methoxy)ethyl)-1H-benzo[d]imidazole-5-carbonitrile] showed a pIC50 against factor B [1] of 6.62.

In the case of `Cc1cc(C2CC2)c(C(OCC(=O)O)(c2nc3cc(C#N)ccc3[nH]2)C(F)(F)F)c2cc[nH]c12` (racemic) [Example 109-C, (±)-2-(1-(5-Cyano-1H-benzo[d]imidazol-2-yl)-1-(5-cyclopropyl-7-methyl-1H-indol-4-yl)-2,2,2-trifluoroethoxy)acetic acid], on factor B [1], the negative logarithm of the IC50 (pIC50) is 7.19.

Consider `COc1cc(C)c2[nH]ccc2c1C(OCC(C)(C)C(=O)O)(c1nc2cc(C#N)ccc2o1)C(F)(F)F` (racemic) [Example 138, (±)-3-(1-(5-cyanobenzo[d]oxazol-2-yl)-2,2,2-trifluoro-1-(5-methoxy-7-methyl-1H-indol-4-yl)ethoxy)-2,2-dimethylpropanoic acid], for which the pIC50 on factor B [1] was 5.91.

In the case of `COc1cc(C)c2[nH]ccc2c1C(NCCO)(c1nc2cc(C#N)ccc2[nH]1)C(F)(F)F` (racemic) [Example 139-C, (±)-2-(2,2,2-Trifluoro-1-((2-hydroxyethyl)amino)-1-(5-methoxy-7-methyl-1H-indol-4-yl)ethyl)-1H-benzo[d]imidazole-5-carbonitrile], the pIC50 against factor B [1] is 6.92.

Molecule `COc1cc(C)c2[nH]ccc2c1C(NCC(=O)O)(c1nc2cc(C#N)ccc2[nH]1)C(F)(F)F` (racemic) [Example 140-B, (±)-2-((1-(5-cyano-1H-benzo[d]imidazol-2-yl)-2,2,2-trifluoro-1-(5-methoxy-7-methyl-1H-indol-4-yl)ethyl)amino)acetic acid] gave a pIC50 against factor B [1] of 6.47.

On factor B [1], `COc1cc(C)c2[nH]ccc2c1C1(c2nc3cc(C#N)ccc3[nH]2)CC1C(=O)O` (racemic) [Example 142-D, (±)-2-(5-Cyano-1H-benzo[d]imidazol-2-yl)-2-(5-methoxy-7-methyl-1H-indol-4-yl)cyclopropanecarboxylic acid] had a pIC50 of 6.10.

Turning to `COc1cc(C)c2[nH]ccc2c1C1(c2nc3cc(C#N)ccc3o2)CC1C(=O)O` (racemic) [Example 143, (±)-2-(5-Cyanobenzo[d]oxazol-2-yl)-2-(5-methoxy-7-methyl-1H-indol-4-yl)cyclopropanecarboxylic acid], the pIC50 at factor B [1] was 5.14.

On factor B [1], `CCOC(=O)C(C)(c1nc2cc(C#N)ccc2o1)c1c(OC)cc(C)c2[nH]ccc12` (racemic) [Example 144-D, (±)-Ethyl 2-(5-cyanobenzo[d]oxazol-2-yl)-2-(5-methoxy-7-methyl-1H-indol-4-yl)propanoate] showed a negative-log IC50 (pIC50) of 5.10.

For `COc1cc(C)c2[nH]ccc2c1C(CC(=O)O)c1nc2cc(C#N)ccc2[nH]1` (racemic) [Example 145-D, (±)-3-(5-Cyano-1H-benzo[d]imidazol-2-yl)-3-(5-methoxy-7-methyl-1H-indol-4-yl)propanoic acid], the pIC50 at factor B [1] was 7.39.

`COc1cc(C)c2[nH]ccc2c1C(CCO)c1nc2cc(C#N)ccc2[nH]1` (racemic) [Example 145-E, (±)-2-(3-hydroxy-1-(5-methoxy-7-methyl-1H-indol-4-yl)propyl)-1H-benzo[d]imidazole-5-carbonitrile] gave a pIC50 on factor B [1] of 6.60.

`COc1cc(C)c2[nH]ccc2c1C(CCC(=O)O)c1nc2cc(C#N)ccc2[nH]1` (racemic) [Example 146-C, (±)-4-(5-Cyano-1H-benzo[d]imidazol-2-yl)-4-(5-methoxy-7-methyl-1H-indol-4-yl)butanoic acid] showed a negative logarithm of the IC50 (pIC50) on factor B [1] of 7.23.

For the molecule `COc1cc(C)c2[nH]ccc2c1C(C)(CCC(=O)O)c1nc2cc(C#N)ccc2o1` (racemic) [Example 150-C, (±)-4-(5-cyanobenzo[d]oxazol-2-yl)-4-(5-methoxy-7-methyl-1H-indol-4-yl)pentanoic acid], the pIC50 on factor B [1] was 5.99.

For the molecule `COc1cc(C)c2[nH]ccc2c1C(CC(C)CO)c1nc2cc(C#N)ccc2[nH]1` (racemic) [Example 151-C, (±)-2-(4-Hydroxy-1-(5-methoxy-7-methyl-1H-indol-4-yl)-3-methylbutyl)-1H-benzo[d]imidazole-5-carbonitrile], the negative logarithm of the IC50 (pIC50) against factor B [1] is 7.04.

With `COc1cc(C)c2[nH]ccc2c1C(Cc1nn[nH]n1)c1nc2cc(C#N)ccc2[nH]1` (racemic) [Example 152, (±)-2-(1-(5-Methoxy-7-methyl-1H-indol-4-yl)-2-(2H-tetrazol-5-yl)ethyl)-1H-benzo[d]imidazole-5-carbonitrile], the negative-log IC50 (pIC50) against factor B [1] was 7.17.

In turn, `COc1cc(C)c2[nH]ccc2c1C(Cc1nn[nH]n1)c1nc2cc(C#N)ccc2o1` (racemic) [Example 153, (±)-2-(1-(5-Methoxy-7-methyl-1H-indol-4-yl)-2-(2H-tetrazol-5-yl)ethyl)benzo[d]oxazole-5-carbonitrile] had a pIC50 against factor B [1] of 5.95.

On factor B [1], `COc1cc(C)c2[nH]ccc2c1C(C)(Cc1nn[nH]n1)c1nc2cc(C#N)ccc2o1` (racemic) [Example 154, (±)-2-(2-(5-Methoxy-7-methyl-1H-indol-4-yl)-1-(2H-tetrazol-5-yl)propan-2-yl)benzo[d]oxazole-5-carbonitrile] had a pIC50 of 4.68.

At factor B [1], `COc1cc(C)c2[nH]ccc2c1C(C)(CCC(=O)O)c1nc2cc(C#N)ccc2[nH]1` (racemic) [Example 155-M, (±)-4-(5-Cyano-1H-benzo[d]imidazol-2-yl)-4-(5-methoxy-7-methyl-1H-indol-4-yl)pentanoic acid] had a pIC50 of 7.70.

As for `COC(=O)CC(C)(c1nc2cc(C#N)ccc2[nH]1)c1c(OC)cc(C)c2c1CCN2` (racemic) [Example 156-K, (±)-Methyl 3-(5-cyano-1H-benzo[d]imidazol-2-yl)-3-(5-methoxy-7-methylindolin-4-yl)butanoate], the pIC50 on factor B [1] was 6.89.

On factor B [1], `COc1cc(C)c2[nH]ccc2c1C(CCCC(=O)O)c1nc2cc(C#N)ccc2[nH]1` (racemic) [Example 157, (±)-5-(5-Cyano-1H-benzo[d]imidazol-2-yl)-5-(5-methoxy-7-methyl-1H-indol-4-yl)pentanoic acid] gave a pIC50 of 7.41.

As for `COc1cc(C)c2[nH]ccc2c1C(c1nc2cc(C#N)ccc2o1)C(C)(C)C(=O)O` (racemic) [Example 158, (±)-3-(5-Cyanobenzo[d]oxazol-2-yl)-3-(5-methoxy-7-methyl-1H-indol-4-yl)-2,2-dimethylpropanoic acid], the pIC50 on factor B [1] was 4.68.

With `COc1cc(C)c2[nH]ccc2c1C(N)(c1nc2cc(C#N)ccc2o1)C(F)(F)F` (single isomer, unassigned) [137-B b) (tr = 2.7 min), (+) or (−)-2-(1-amino-2,2,2-trifluoro-1-(5-methoxy-7-methyl-1H-indol-4-yl)ethyl)benzo[d]oxazole-5-carbonitrile], at factor B [1], the pIC50 was 7.70.

In the case of `COc1cc(C)c2[nH]ccc2c1C(N)(c1nc2cc(C#N)ccc2o1)C(F)(F)F` (single isomer, unassigned) [137-B b) (tr = 4.6 min), (−) or (+)-2-(1-amino-2,2,2-trifluoro-1-(5-methoxy-7-methyl-1H-indol-4-yl)ethyl)benzo[d]oxazole-5-carbonitrile], the pIC50 against factor B [1] is 5.49.

The molecule `CCc1cc(C)c2[nH]ccc2c1C(C)(N)c1nc2cc(C#N)ccc2o1` (single isomer, unassigned) [137-F b) (tr = 3.3 min), (+) or (−)-2-(1-amino-1-(5-ethyl-7-methyl-1H-indol-4-yl)ethyl)benzo[d]oxazole-5-carbonitrile] showed a pIC50 against factor B [1] of 6.77.

In the case of `CCc1cc(C)c2[nH]ccc2c1C(C)(N)c1nc2cc(C#N)ccc2o1` (single isomer, unassigned) [137-F b) (tr = 4.9 min), (−) or (+)-2-(1-amino-1-(5-ethyl-7-methyl-1H-indol-4-yl)ethyl)benzo[d]oxazole-5-carbonitrile], on factor B [1], the negative-log IC50 (pIC50) is 8.00.

As for `CNC(C)(c1nc2cc(C#N)ccc2o1)c1c(OC)cc(C)c2[nH]ccc12` (single isomer, unassigned) [137-M b) (tr = 2.9 min), (+) or (−)-2-(1-(5-methoxy-7-methyl-1H-indol-4-yl)-1-(methylamino)ethyl)benzo[d]oxazole-5-carbonitrile], the negative-log IC50 (pIC50) at factor B [1] was 6.43.

Take “(+) or (−)-2-(1-methoxy-1-(7-methyl-5-(methylsulfonyl)-1H-indol-4-yl)ethyl)-1H-benzo[d]imidazole-5-carbonitrile [12-B b) (tr = 3.5 min)]”: the pIC50 at factor B [2] is 4.86.

Regarding “(−) or (+)-2-(1-methoxy-1-(7-methyl-5-(methylsulfonyl)-1H-indol-4-yl)ethyl)-1H-benzo[d]imidazole-5-carbonitrile [12-B b) (tr = 6.1 min)]”, the pIC50 at factor B [2] was 6.22.
